Measured values reported in patent US6992215B2, “Thiol-based NAALADase inhibitors” (Guildford Pharmaceuticals Inc., priority 2001, dated 2006).
Several values for one entry are separate records, joined by “and”; a condition that tells them apart may be missing. Equal entries are not always repeated. Peptide text beside a SMILES is read from it.

Experiments:
NAALADase = biological target: T1, NAALADase (Homo sapiens, UniProt Q04609); settings: NAAG as substrate; cited from earlier work
T1 construct: 100 μL tissue; from tissue; host or cells: unspecified tissue
T1 sequence (Q04609 whole entry): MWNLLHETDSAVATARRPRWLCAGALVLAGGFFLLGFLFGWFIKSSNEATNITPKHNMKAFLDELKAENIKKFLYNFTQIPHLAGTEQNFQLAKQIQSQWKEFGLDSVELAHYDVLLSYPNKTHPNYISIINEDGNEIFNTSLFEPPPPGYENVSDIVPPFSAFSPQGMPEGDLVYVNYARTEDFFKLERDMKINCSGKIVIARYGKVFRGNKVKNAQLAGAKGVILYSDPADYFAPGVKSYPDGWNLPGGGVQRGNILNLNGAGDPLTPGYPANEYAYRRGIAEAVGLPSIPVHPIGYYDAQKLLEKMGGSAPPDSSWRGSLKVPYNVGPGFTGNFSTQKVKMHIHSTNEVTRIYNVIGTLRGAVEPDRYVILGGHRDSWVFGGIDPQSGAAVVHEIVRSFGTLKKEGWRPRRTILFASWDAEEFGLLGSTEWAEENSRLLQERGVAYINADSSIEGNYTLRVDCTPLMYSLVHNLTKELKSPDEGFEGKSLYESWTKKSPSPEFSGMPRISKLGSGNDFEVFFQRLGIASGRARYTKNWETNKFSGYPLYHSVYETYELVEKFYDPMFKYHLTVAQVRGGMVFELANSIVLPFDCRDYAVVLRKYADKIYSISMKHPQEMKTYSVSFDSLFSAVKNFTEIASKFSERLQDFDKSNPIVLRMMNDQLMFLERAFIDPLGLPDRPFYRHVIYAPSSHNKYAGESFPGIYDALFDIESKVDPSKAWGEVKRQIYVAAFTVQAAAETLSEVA

[1] = tested on: rats with unilateral elevation of intraocular pressure; assay: Experimental rat glaucoma (IOP elevation, optic nerve fiber counting); format: in vivo; settings: for FIBER NUMBER / PERCENT DIFFERENCE (fiber number between glaucoma and normal eye): 10 mg/kg i.p. daily; for mean percent fiber loss versus saline-treated control groups: at 8 weeks, p=0.05 for Compound A and p=0.02 for Compound B
Experimental: (§1) All experiments complied with the Association for Research in Vision and Ophthalmology Statement for the Use of Animals in Ophthalmic and Vision Research. 82 male Brown Norway rats (Rattus norvegicus), each weighing approximately 250 gm, were treated using procedures approved by the Animal Care Committee of the Johns Hopkins University School of Medicine. The rats were housed with a 12 hour light/12 hour dark cycle and fed ad libitum.
EXPERIMENTAL GLAUCOMA: Unilateral elevation of intraocular pressure (“IOP”) was produced in 56 rats by microinjection of hypertonic saline into episcleral veins, following procedures described in Morrison, J. et al., IOVS (March 1998) 39:526–531. Beginning on the day of IOP elevation, the rats were treated daily with intraperitoneal injections of either a vehicle (23 rats with 50 mM HEPES-buffered saline) or a NAALADase inhibitor (11 rats with 10 mg/kg of Compound A and 22 rats with 10 mg/kg of Compound B). 11 saline treated rats, 11 Compound A treated rats and 11 Compound B treated rats were sacrificed at 8 weeks, and the remaining rats at 12 weeks, after initial IOP elevation.
(§2) OPTIC NERVE COUNTING: The rats were sacrificed by exsanguination under deep pentobarbital anesthesia. They were perfused through the heart with 2% paraformaldehyde/2% glutaraldehyde in 0.1 M phosphate buffer, pH 7.2, and the eyes with attached optic nerves were removed. A cross-section of the optic nerve from both experimental (glaucoma or transection) and control eyes was removed 1.5 mm posterior to the globe, 1 mm in thickness, and post-fixed in 2% osmium tetroxide in buffer. These were processed into epoxy resin, sectioned at 1 micron and stained with toluidine blue.
(§3) The area of the optic nerve cross-section was measured by outlining its outer border at 10× magnification on an image analysis system (Universal Imaging Corp., Westchester, Pa.) with Synsys digital camera and Metamorph software. Three area measurements were taken and the mean value was determined. To measure the density and fiber diameter distributions, images were captured with a 100× phase contrast objective from 10 different areas of each nerve. These were edited to eliminate non-neural objects and the size of each axon internal to the myelin sheath (its minimum diameter) and the density of axons/square mm were calculated for each image and nerve. The mean density was multiplied by total nerve area to yield fiber number for each nerve. The total fiber number in glaucoma or transection nerves was compared to the normal, fellow eye of each rat to yield a percent loss value. The number of axons counted among the 10 images was an approximately 20% sample of the 80–90,000 axons in normal rat nerves. The person measuring axon number was masked to the protocol conducted on the nerves.

[2] = tested on: transgenic HD mice of the N171–82Q strain; assay: Huntington's disease transgenic mouse model, behavioral testing (rotarod, locomotion); format: in vivo; settings: FIG. 42
Experimental: Transgenic HD mice of the […]-[…] strain and non-transgenic littermates were treated with NAALADase inhibitor Compound B (30 mg/kg) or a vehicle from 10 weeks of age. The mice were placed on a rotating rod (“rotarod”). The length of time at which the mouse fell off the rotarod was recorded as a measure of motor coordination. […] The treatment with Compound B had no effect on the rotarod performance of normal non-HD mice. The total distance traveled by the mice was also recorded as a measure of overall locomotion.

[3] = tested on: rats with unilaterally transected optic nerve; assay: Optic nerve transection (optic nerve fiber counting); format: in vivo, Rattus norvegicus; settings: for remaining axons relative to the saline-treated rats: 2 weeks after transection; for FIBER NUMBER / PERCENT DIFFERENCE (fiber number between transected eye and normal eye): 10 mg/kg i.p. daily
Experimental: as §1
OPTIC NERVE TRANSECTION: The optic nerve was transected unilaterally in 26 rats under intraperitoneal pentobarbital anesthesia. The conjunctiva was opened with scissors and the optic nerve exposed by traction on extraocular muscles. The transection was performed with microscissors 5 mm posterior to the globe, with specific attention to avoidance of injury to major ocular blood vessels. Immediately after transection, the retina was examined ophthalmoscopically to assure that the retinal arterial blood supply was not disrupted. The conjunctiva was closed with absorbable suture and the eye dressed with antibiotic ointment. Beginning on the day of transection, the rats were treated daily with intraperitoneal injections of either a vehicle (9 rats with 50 mM HEPES-buffered saline) or a NAALADase inhibitor (8 rats with 10 mg/kg of Compound A and 9 rats with 10 mg/kg of Compound B). 5 saline treated rats, 3 Compound A treated rats and 4 Compound B treated rats were sacrificed at 2 weeks, and the remaining rats at 4 weeks, after transection.
as §2, §3

[4] = tested on: transgenic HD mice (N171–82Q); assay: Huntington's disease transgenic mouse model, survival; format: in vivo
Experimental: The effects of Compound B and vehicle on the survival of transgenic HD mice (N171–82Q) were evaluated. Thirteen mice (six male and seven female) were assigned to the Compound B treatment group, and fourteen mice (six male and eight female) were assigned to the vehicle treatment group. Treatment was continued until all the mice died.

STZ-diabetic rats = assay: Diabetic neuropathy in STZ model (motor and sensory nerve conduction velocity); format: in vivo
Experimental: Motor and sensory nerve conduction velocity was also measured in STZ-diabetic animals after 4, 8 and 12 weeks of treatment (see De Koning et al., supra, for a description of the experimental method). Briefly, stimulating needle electrodes were inserted close to the sciatic and tibial nerves with recording electrodes being placed subcutaneously over the distal foot muscles, in anesthetized rats.

transgenic G1H mice = assay: Effect of NAALADase inhibitors on onset of ALS (FALS transgenic mice); format: in vivo
Experimental: The effect of NAALADase inhibitors on the onset of ALS was tested using the transgenic mice model of familial amyotrophic lateral sclerosis (FALS), which is detailed in Gurney, M., Annals of Neurology (1996) 39:147–157, and otherwise well known in the art. One month old transgenic G1H mice were treated with daily intraperitoneal injections of a vehicle (50 mM HEPES-buffered saline) or a NAALADase inhibitor (50 mg/kg Compound A). Clinical symptoms of the mice were monitored daily. The onset of clinical disease was scored by examining each mouse for its shaking of limbs when suspended in the air by its tail, cross spread of spinal reflexes, hindlimb paralysis, body weight and wheel running activity.

[5] = tested on: STZ-induced diabetic rats; assay: Neuropathic pain in STZ model (Hargreaves thermal nociception); format: in vivo, Sprague-Dawley rats; settings: 10 mg/kg i.p. daily, treatment started 45 days post-STZ
Experimental: Male Sprague-Dawley rats (200–225 g) were rendered diabetic by intravenous administration of streptozotocin (“STZ”, 70 mg/kg in phosphate buffered saline). Diabetic animals were divided into five groups: one group receiving Compound A (10 mg/kg or 1 mg/kg), Compound D (10 mg/kg or 1 mg/kg) or vehicle. Another group of animals (non-STZ treated) served as non-diabetic controls. Drug/vehicle treatment was started in diabetic animals 45 days post-STZ administration. STZ-induced diabetic rats were tested for sensitivity to a heat source as soon as blood glucose levels rose to 320 mg/dl or above (30 days post STZ). The rats were then acclimated to a Hargreaves apparatus and thermal nociception was monitored using an infrared heat source directed into the dorsal surface of the hindpaw, and the time taken for the animal to remove its paw noted to the nearest 0.1 seconds (see Hargreaves et al., supra, for detailed experimental method). The intensity of the beam source was adjusted such that the mean latency for control animals (non-STZ treated) was approximately 10 seconds. Each animal was tested 8 times and the mean difference score (between mean non-diabetic control latency and mean diabetic latency) are graphically presented in FIGS. 7A and 7B.

BB/W diabetic rats = assay: Progression of neuropathic pain and nerve conduction deficits in BB/W model; format: in vivo
Description: Male BB/W rats (BRI, Mass) spontaneously develop a cell mediated autoimmune destruction of pancreatic B cells, resulting in onset of insulin-dependent (Type I) diabetes (Guberski 1994). […] This renders them valuable for experimental trials of new compounds for future treatments of this major disorder. In the present study, Compound D and Compound A were examined for their ability to alter the progression of diabetic neuropathy. […] Another group of non-diabetic rats also receiving vehicle were tested. All animals were continuously monitored for body weight, urine volume, blood sugar and glycated haemoglobin. In the first month of the study, all animals were tested for thermal nociception in a Hargreaves apparatus, weekly. After the first month this was done biweekly and then monthly. The testing consists of directing an infrared heat source onto the dorsal surface of the rat hindpaw and noting the time taken for the animal to remove its paw (see Hargreaves et al., supra, for a description of the experimental method). Each animal was tested 8 times and the mean withdrawal latency noted.
Nerve conduction velocity was also measured every two weeks through the first eight weeks of treatment and every month thereafter through to the six months of treatment (see De Koning et al., Peptides, Vol. 8, No. 3, pp. 415–22 (1987) for a description of the experimental method). […] This was apparent starting at 8 weeks of treatment and persisted to a similar degree through to the six month termination point of the study.

[6] = 8 week group, positive value indicates fewer fibers in the glaucoma eye

SMILES | FIBER NUMBER ([1]; 8 week group) | PERCENT DIFFERENCE (fiber number between glaucoma and normal eye) [1, 6] [%] | mean percent fiber loss versus saline-treated control groups [1] | remaining axons relative to the saline-treated rats [3] | FIBER NUMBER ([3]; 2 weeks survival) | PERCENT DIFFERENCE (fiber number between transected eye and normal eye) ([3]; 2 weeks survival) [%] | FIBER NUMBER ([3]; 4 weeks survival) | PERCENT DIFFERENCE (fiber number between transected eye and normal eye) ([3]; 4 weeks survival) [%] | other results
CC(=O)N[C@@H](CC(=O)O)C(=O)N[C@@H](CCC(=O)O)C(=O)O [NAAG, N-acetyl-aspartyl-glutamate] (Ac-Asp-Glu-OH) | – | – | – | – | – | – | – | – | Km (NAALADase): 0.54 µM
O=C(O)CCC(CCCS)C(=O)O (centres unmarked) [Compound B, 2-(3-sulfanylpropyl)pentanedioic acid] | 80785 ± 2121 | −0.82 ± 2.97 | statistically less | twice | 19,550 ± 11,383 | 75.3 ± 14.8 | 5,162 ± 5,017 | 93.4 ± 6.2 | FIBER NUMBER ([1]; 12 week group): 90504 ± 1718; PERCENT DIFFERENCE (fiber number between glaucoma and normal eye) ([1]; 12 week group): −3.21 ± 2.86%; rotarod performance ([2]; normal non-HD mice, 30 mg/kg): no effect; rotarod performance (time on the rotarod) versus vehicle ([2]; transgenic HD mice, 30 mg/kg from 10 weeks of age): stayed longer on the rotarod; survival time versus vehicle treated counterparts ([4]; female mice, p-value=0.03, FIG. 46): significantly prolonged survival time; difference in median survival time versus vehicle treatment group ([4]; p-value=0.07): not statistically significant; median survival time ([4]; transgenic HD mice, male and female, FIG. 44): 184 days
O=C(O)CCC(CP(=O)(O)Cc1c(F)c(F)c(F)c(F)c1F)C(=O)O (centres unmarked) [Compound A] | 79156 ± 2436 | −1.82 ± 2.92 | statistically less | 3 times | 26,426 ± 23,025 | 65.3 ± 30.9 | 13,599 ± 7,868 | 82.4 ± 8.9 | motor and sensory nerve conduction velocities (STZ-diabetic rats; 10 mg/kg daily for 4, 8 and 12 weeks, FIGS. 9A and 9B): tended to improve (increase); treatment time after which improvement of motor nerve conduction velocity was significant (STZ-diabetic rats; 10 mg/kg daily, FIG. 9A): 12 weeks; treatment time after which improvement of sensory nerve conduction velocity was significant (STZ-diabetic rats; 10 mg/kg daily, FIG. 9B): 8 weeks; DIFFERENCE (disease onset, Compound A treated versus vehicle treated mice) (transgenic G1H mice; 50 mg/kg daily intraperitoneal injections): 32 and 25; DISEASE ONSET FOR COMPOUND A TREATED MICE (transgenic G1H mice; 50 mg/kg daily intraperitoneal injections from one month of age): 221 days and 166 days; hyperalgesic response (withdrawal latency difference score) [5]: completely reversed; nerve conduction velocity deficits versus diabetic vehicle controls (BB/W diabetic rats; 10 mg/kg daily, from 8 weeks to six months of treatment, FIG. 12): significantly less severe nerve conduction deficits; withdrawal latency versus diabetic vehicle-treated rats (BB/W diabetic rats; 10 mg/kg i.p. daily, starting after 4 weeks and through six months of treatment, FIG. 11): longer withdrawal latencies
